Results from US6423689B1, “Peptidyl calcium channel blockers” (Warner-Lambert Company, priority 1997, dated 2002).

What follows are molecules tested against T1, N-type Ca2+ channels in IMR-32 cells (Homo sapiens, UniProt Q00975) (assay: Inhibition of N-type calcium flux in IMR-32 cells (Indo-1 fluorescence, nitrendipine present)). Details: 1 μM.
T1 construct: host or cells: IMR-32 cells, differentiated with dibutyryl cAMP and bromodeoxyuridine
Format: cell-based
Experimental: Measurement of N-type Ca^2+ Channel Blocking Potencies of Compounds in IMR-32 Cells Using the Fluorescent Ca^2+ Indicator Indo-1
IMR-32 cells are a human tumoral cell line of neural origin. […] Calcium flux into these cells may be induced by stimulation with elevated potassium concentrations. The L-channel component of calcium flux may be blocked by adding 5 μM nitrendipine. The remaining component of calcium entry into the IMR-32 cells is due to calcium flux through N-type calcium channels. Intracellular calcium concentrations are measured using the fluorescent calcium indicator Indo 1. The effect of drug concentration on calcium uptake is studied.
The IMR-32 cell line was obtained from the American Type Culture Collection (Rockville, Md.). Cells were grown in Eagle's Minimum Essential Medium with Eagle's salts supplemented with 10% fetal bovine serum, 2 mM L-Gln and antibiotic/antimycotic mixture (Gibco). […] After 7 to 13 days of differentiation, cells were detached using 0.5 mM EDTA and loaded with 5 μM Indo-1 acetoxymethyl ester (Molecular Probes, Eugene, OR) at […] for 45 minutes. Loaded cells were washed twice, resuspended (˜10^7 cells/mL) in assay buffer (10 mM HEPES/Tris pH 7.4 in Hank's Balanced Salt Solution without bicarbonate or phenol red containing 0.5% bovine serum albumin) and kept on ice until use. Fluorescence measurements were carried out in a Photon Technology International (PTI, South Brunswick, N.J.) Model RF-F3004 spectrofluorometer with dual emission monochromators using excitation at 350 nm and emission at 400 and 490 nm. The instrument was equipped with a thermostated cuvette holder with stirring capabilities as well as with a computer-controlled pump which allowed for reagent addition during measurement. Instrument control and data collection was done by PTI's OSCAR software running on an IBM compatible computer. […] Samples were incubated for 10 minutes at 30° C. and then aliquoted into three 10×10 mm disposable acrylic cuvettes. Emission signals at 400 and 490 nm were acquired from each cuvette at 30° C. for 50 seconds. At 20 seconds after the start of reading, cells were depolarized by the addition of 160 μL of stimulation solution (1M KCl, 68 mM CaCl2) to the cuvette via the computer-controlled pump. Ratio of dual emission signals (400 nm/490 nm), which is proportional to intracellular Ca^2+ concentration, was plotted against time, and the difference between maximal response after stimulation and basal value (before stimulation) was determined. Values obtained in this way were plotted as a function of drug concentration. IC50 values of test compounds were calculated by fitting a four-parameter logistic function to the data using the least squares method.

T1 sequence (Q00975 whole entry): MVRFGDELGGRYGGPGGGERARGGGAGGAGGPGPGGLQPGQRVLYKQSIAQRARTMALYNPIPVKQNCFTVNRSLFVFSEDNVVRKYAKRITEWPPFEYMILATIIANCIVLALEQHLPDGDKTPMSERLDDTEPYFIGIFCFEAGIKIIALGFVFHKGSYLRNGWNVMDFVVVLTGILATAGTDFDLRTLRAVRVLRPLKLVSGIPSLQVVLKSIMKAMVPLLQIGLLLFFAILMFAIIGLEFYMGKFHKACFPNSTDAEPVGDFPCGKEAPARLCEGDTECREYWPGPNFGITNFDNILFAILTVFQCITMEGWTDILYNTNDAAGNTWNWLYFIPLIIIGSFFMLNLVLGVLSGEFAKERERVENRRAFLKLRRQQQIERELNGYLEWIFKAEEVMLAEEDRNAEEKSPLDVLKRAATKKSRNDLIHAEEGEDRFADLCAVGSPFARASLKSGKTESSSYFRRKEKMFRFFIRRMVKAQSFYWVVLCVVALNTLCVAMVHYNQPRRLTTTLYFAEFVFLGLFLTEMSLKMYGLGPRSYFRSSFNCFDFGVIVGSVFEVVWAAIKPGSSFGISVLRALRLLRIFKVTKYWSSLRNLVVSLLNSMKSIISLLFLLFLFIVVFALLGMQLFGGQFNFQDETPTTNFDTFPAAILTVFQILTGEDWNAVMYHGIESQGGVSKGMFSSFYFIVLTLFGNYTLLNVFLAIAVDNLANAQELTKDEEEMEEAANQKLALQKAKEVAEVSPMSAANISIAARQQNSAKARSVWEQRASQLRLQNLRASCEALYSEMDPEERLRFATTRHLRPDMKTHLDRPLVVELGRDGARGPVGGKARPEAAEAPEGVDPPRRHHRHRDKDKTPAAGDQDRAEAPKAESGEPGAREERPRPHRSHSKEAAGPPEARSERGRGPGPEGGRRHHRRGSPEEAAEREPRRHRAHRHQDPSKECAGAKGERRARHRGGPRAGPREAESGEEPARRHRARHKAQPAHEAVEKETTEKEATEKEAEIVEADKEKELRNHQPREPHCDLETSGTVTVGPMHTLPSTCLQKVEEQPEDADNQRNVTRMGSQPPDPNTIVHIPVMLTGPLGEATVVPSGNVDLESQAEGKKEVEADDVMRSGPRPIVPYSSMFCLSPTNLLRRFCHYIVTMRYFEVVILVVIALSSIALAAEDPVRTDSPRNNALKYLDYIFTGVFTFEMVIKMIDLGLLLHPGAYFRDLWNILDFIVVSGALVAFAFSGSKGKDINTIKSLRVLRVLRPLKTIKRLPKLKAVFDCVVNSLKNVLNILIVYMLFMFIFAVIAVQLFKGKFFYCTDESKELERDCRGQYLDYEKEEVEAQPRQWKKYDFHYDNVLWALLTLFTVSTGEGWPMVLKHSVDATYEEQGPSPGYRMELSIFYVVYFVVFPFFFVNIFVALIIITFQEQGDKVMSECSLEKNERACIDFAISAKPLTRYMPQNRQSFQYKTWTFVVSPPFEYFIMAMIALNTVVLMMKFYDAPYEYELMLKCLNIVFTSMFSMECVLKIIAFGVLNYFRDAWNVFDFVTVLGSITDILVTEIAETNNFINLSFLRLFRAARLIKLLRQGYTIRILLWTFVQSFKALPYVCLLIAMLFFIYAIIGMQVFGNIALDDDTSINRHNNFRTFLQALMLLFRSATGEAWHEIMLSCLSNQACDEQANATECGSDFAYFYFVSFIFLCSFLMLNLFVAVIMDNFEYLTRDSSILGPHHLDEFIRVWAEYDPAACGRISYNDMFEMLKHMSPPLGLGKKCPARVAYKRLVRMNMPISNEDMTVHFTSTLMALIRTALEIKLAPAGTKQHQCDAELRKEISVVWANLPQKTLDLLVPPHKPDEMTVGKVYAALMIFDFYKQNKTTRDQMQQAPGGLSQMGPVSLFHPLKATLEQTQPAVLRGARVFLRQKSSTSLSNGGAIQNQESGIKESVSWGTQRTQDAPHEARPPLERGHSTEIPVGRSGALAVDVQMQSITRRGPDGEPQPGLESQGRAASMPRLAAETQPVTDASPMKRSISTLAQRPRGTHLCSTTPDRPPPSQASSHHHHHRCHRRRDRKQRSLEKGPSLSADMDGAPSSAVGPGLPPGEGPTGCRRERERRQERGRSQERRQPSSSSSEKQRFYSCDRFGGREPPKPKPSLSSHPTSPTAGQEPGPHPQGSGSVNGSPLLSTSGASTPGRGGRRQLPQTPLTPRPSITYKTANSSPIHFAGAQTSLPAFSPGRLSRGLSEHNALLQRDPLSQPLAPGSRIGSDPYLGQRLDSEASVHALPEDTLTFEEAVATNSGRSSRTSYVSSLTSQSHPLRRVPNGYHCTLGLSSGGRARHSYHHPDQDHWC
T1 sequence (P54289 25-956 partner limits assumed): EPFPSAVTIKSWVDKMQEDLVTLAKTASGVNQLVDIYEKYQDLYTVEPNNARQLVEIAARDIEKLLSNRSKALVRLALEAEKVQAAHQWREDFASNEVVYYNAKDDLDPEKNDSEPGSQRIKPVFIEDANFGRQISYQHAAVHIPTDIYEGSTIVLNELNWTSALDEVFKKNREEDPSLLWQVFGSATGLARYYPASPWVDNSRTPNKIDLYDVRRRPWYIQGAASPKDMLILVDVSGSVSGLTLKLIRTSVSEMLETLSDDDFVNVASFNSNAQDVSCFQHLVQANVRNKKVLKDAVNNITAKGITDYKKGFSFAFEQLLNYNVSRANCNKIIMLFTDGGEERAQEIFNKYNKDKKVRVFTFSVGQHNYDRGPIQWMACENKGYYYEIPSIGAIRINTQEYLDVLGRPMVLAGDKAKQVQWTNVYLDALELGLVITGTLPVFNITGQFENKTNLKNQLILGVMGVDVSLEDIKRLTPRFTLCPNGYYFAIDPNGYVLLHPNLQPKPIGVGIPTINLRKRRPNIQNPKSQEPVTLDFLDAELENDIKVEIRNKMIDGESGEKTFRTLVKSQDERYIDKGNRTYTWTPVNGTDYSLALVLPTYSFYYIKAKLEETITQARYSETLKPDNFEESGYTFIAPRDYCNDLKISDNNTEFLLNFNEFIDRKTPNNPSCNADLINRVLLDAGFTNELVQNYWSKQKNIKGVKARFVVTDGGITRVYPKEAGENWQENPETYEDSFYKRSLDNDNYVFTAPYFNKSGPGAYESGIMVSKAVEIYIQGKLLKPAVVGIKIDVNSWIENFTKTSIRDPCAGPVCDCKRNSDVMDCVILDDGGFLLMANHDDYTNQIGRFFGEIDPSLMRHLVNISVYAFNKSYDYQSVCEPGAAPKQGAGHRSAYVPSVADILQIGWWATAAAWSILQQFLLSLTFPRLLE
T1 sequence (P54289 957-1103 partner limits assumed): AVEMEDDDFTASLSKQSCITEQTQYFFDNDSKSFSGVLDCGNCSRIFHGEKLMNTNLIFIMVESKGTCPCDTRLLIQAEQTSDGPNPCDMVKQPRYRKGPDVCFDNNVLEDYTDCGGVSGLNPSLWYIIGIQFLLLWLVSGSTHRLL
T1 sequence (P54284 whole entry partner): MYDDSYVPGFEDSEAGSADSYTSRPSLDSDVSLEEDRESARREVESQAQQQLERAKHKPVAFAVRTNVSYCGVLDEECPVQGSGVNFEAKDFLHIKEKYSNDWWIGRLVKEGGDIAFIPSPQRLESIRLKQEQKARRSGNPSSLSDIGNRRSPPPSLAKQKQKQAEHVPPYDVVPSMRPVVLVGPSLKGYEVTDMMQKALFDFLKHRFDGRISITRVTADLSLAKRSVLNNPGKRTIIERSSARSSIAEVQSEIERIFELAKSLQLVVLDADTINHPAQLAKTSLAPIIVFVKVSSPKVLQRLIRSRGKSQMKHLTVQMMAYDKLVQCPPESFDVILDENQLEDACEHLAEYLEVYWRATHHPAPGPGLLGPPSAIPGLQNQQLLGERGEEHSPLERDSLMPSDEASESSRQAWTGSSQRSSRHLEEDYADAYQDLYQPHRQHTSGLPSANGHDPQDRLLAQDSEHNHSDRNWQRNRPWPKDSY

Question: Which “Inhibition of Calcium Flux in IMR-32 Cells % Inhibition at 1 μM” value does the source give for CC(C)C[C@H](NC(=O)Nc1cccc(Cl)c1)C(=O)N[C@@H](Cc1ccc(OCc2ccccc2)cc1)C(=O)OC(C)(C)C (relative stereo) [Example 74, [S-(R*,R*)]-3-(4-Benzyloxy-phenyl)-2-{2-[3-(3-chloro-phenyl)-ureido]-4-methyl-pentanoylamino}-propionic acid tert-butyl ester] here?
Answer: Its value is 45%.

Question: How did the “Inhibition of Calcium Flux in IMR-32 Cells % Inhibition at 1 μM” value turn out when CC(C)C[C@H](NC(=O)NC1CC1c1ccccc1)C(=O)N[C@@H](Cc1ccc(OCc2ccccc2)cc1)C(=O)OC(C)(C)C (relative stereo) [Example 75, [S-(R*,R*)]-3-(4-Benzyloxy-phenyl)-2-{4-methyl-2-[3-(2-phenyl-cyclopropyl)-ureido]-pentanoylamino}-propionic acid tert-butyl ester] was run?
Answer: The value was 28%.

Question: CC(C)C[C@H](NC(=O)Nc1cccc(C(F)(F)F)c1)C(=O)N[C@@H](Cc1ccc(OCc2ccccc2)cc1)C(=O)OC(C)(C)C (relative stereo) [Example 76, [S-(R*,R*)]-3-(4-Benzyloxy-phenyl)-2-{4-methyl-2-[3-(3-trifluoromethyl-phenyl)-ureido]-pentanoylamino}-propionic acid tert-butyl ester] was tested. Which “Inhibition of Calcium Flux in IMR-32 Cells % Inhibition at 1 μM” value did it give?
Answer: The value was 27%.

Question: With CCOC(=O)c1ccc(NC(=O)N[C@@H](CC(C)C)C(=O)N[C@@H](Cc2ccc(OCc3ccccc3)cc2)C(=O)OC(C)(C)C)cc1 (relative stereo) [Example 77, [S-(R*,R*)]-4-(3-{1-[2-(4-Benzyloxy-phenyl)-1tert-butoxycarbonyl-ethylcarbamoyl]-3-methylbutyl}-ureido)-benzoic acid ethyl ester] as the molecule, how does the “Inhibition of Calcium Flux in IMR-32 Cells % Inhibition at 1 μM” value read?
Answer: Its value is 22%.

Question: With CC(C)C[C@H](NC(=O)Nc1ccc(Cl)c(C(F)(F)F)c1)C(=O)N[C@@H](Cc1ccc(OCc2ccccc2)cc1)C(=O)OC(C)(C)C (relative stereo) [Example 78, [S-(R*,R*)]-3-(4-Benzyloxy-phenyl)-2-{2-[3-(4-chloro-3-trifluoromethyl-phenyl)-ureido]-4-methyl-pentanoylamino}-propionic acid tert-butyl ester] as the molecule, how does the “Inhibition of Calcium Flux in IMR-32 Cells % Inhibition at 1 μM” value read?
Answer: Its value is 24%.

Question: How did the “Inhibition of Calcium Flux in IMR-32 Cells % Inhibition at 1 μM” value turn out when CC(C)C[C@H](NC(=O)Nc1cccc2ccccc12)C(=O)N[C@@H](Cc1ccc(OCc2ccccc2)cc1)C(=O)OC(C)(C)C (relative stereo) [Example 79, [S-(R*,R*)]-3-(4-Benzyloxy-phenyl)-2-[4-methyl-2-(3-naphthalen-1-yl-ureido)-pentanoylamino]-propionic acid tert-butyl ester] was run?
Answer: Its value is 23%.

Question: For CC(C)C[C@H](NC(=O)Nc1ccc(Cl)cc1)C(=O)N[C@@H](Cc1ccc(OCc2ccccc2)cc1)C(=O)OC(C)(C)C (relative stereo) [Example 80, [S-(R*,R*)]-3-(4-Benzyloxy-phenyl)-2-{2-[3-(4-chloro-phenyl)-ureido]-4-methyl-pentanoylamino}-propionic acid tert-butyl ester], which “Inhibition of Calcium Flux in IMR-32 Cells % Inhibition at 1 μM” value is on record?
Answer: The value was 40%.

Question: How did the “Inhibition of Calcium Flux in IMR-32 Cells % Inhibition at 1 μM” value turn out when CC(C)C[C@H](NC(=O)Nc1cccc(Cl)c1Cl)C(=O)N[C@@H](Cc1ccc(OCc2ccccc2)cc1)C(=O)OC(C)(C)C (relative stereo) [Example 81, [S-(R*,R*)]-3-(4-Benzyloxy-phenyl)-2-{2-[3-(2,3-dichloro-phenyl)-ureido]-4-methyl-pentanoylamino}-propionic acid tert-butyl ester] was run?
Answer: The value was 32%.

Question: How did the “Inhibition of Calcium Flux in IMR-32 Cells % Inhibition at 1 μM” value turn out when CC(C)C[C@H](NC(=O)Nc1ccc(Cl)cc1Cl)C(=O)N[C@@H](Cc1ccc(OCc2ccccc2)cc1)C(=O)OC(C)(C)C (relative stereo) [Example 82, [S-(R*,R*)]-3-(4-Benzyloxy-phenyl)-2-{2-[3-(2,4-dichloro-phenyl)-ureido]-4-methyl-pentanoylamino}-propionic acid tert-butyl ester] was run?
Answer: Its value is 55%.

Question: With CC(C)C[C@H](NC(=O)Nc1cc(C(F)(F)F)cc(C(F)(F)F)c1)C(=O)N[C@@H](Cc1ccc(OCc2ccccc2)cc1)C(=O)OC(C)(C)C (relative stereo) [Example 83, [S-(R*,R*)]-3-(4-Benzyloxy-phenyl)-2-{2-[3-(3,5-bis-trifluoromethyl-phenyl)-ureido]-4-methyl-pentanoylamino}-propionic acid tert-butyl ester] as the molecule, how does the “Inhibition of Calcium Flux in IMR-32 Cells % Inhibition at 1 μM” value read?
Answer: The value was 19%.

Question: With CC(C)C[C@H](NC(=O)Nc1ccc(Br)cc1)C(=O)N[C@@H](Cc1ccc(OCc2ccccc2)cc1)C(=O)OC(C)(C)C (relative stereo) [Example 84, [S-(R*,R*)]-3-(4-Benzyloxy-phenyl)-2-{2-[3-(^4-bromo-phenyl)-ureido]-4-methyl-pentanoylamino}-propionic acid tert-butyl ester] as the molecule, how does the “Inhibition of Calcium Flux in IMR-32 Cells % Inhibition at 1 μM” value read?
Answer: Its value is 49%.

Question: How did the “Inhibition of Calcium Flux in IMR-32 Cells % Inhibition at 1 μM” value turn out when CC(C)C[C@H](NC(=O)Nc1ccc(Cl)c(Cl)c1)C(=O)N[C@@H](Cc1ccc(OCc2ccccc2)cc1)C(=O)OC(C)(C)C (relative stereo) [Example 85, [S-(R*,R*)]-3-(4-Benzyloxy-phenyl)-2-{2-[3-(3,4-dichloro-phenyl)-ureido]-4-methyl-pentanoylamino}-propionic acid tert-butyl ester] was run?
Answer: Its value is 30%.

Question: CC(C)C[C@H](NC(=O)Nc1cc(Cl)cc(Cl)c1)C(=O)N[C@@H](Cc1ccc(OCc2ccccc2)cc1)C(=O)OC(C)(C)C (relative stereo) [Example 86, [S-(R*,R*)]-3-(4-Benzyloxy-phenyl)-2-{2-[3-(3,5-dichloro-phenyl)-ureido]-4-methyl-pentanoylamino}-propionic acid tert-butyl ester] was tested. Which “Inhibition of Calcium Flux in IMR-32 Cells % Inhibition at 1 μM” value did it give?
Answer: The value was 40%.

Question: For CC(C)C[C@H](NC(=O)NC(C)C)C(=O)N[C@@H](Cc1ccc(OCc2ccccc2)cc1)C(=O)OC(C)(C)C (relative stereo) [Example 87, [S-(R*,R*)]-3-(4-Benzyloxy-phenyl)-2-[2-(3-isopropyl-ureido)-4-methyl-pentanoylamino]-propionic acid tert-butyl ester], which “Inhibition of Calcium Flux in IMR-32 Cells % Inhibition at 1 μM” value is on record?
Answer: Its value is 37%.

Question: For CNC(=O)N[C@@H](CC(C)C)C(=O)N[C@@H](Cc1ccc(OCc2ccccc2)cc1)C(=O)OC(C)(C)C (relative stereo) [Example 88, [S-(R*,R*)]-3-(4-Benzyloxy-phenyl)-2-[4-methyl-2-(3-methyl-ureido)-pentanoylamino]-propionic acid tert-butyl ester], which “Inhibition of Calcium Flux in IMR-32 Cells % Inhibition at 1 μM” value is on record?
Answer: The value was 30%.

Question: For CCNC(=O)N[C@@H](CC(C)C)C(=O)N[C@@H](Cc1ccc(OCc2ccccc2)cc1)C(=O)OC(C)(C)C (relative stereo) [Example 89, [S-(R*,R*)]-3-(4-Benzyloxy-phenyl)-2-[2-(3-ethyl-ureido)-4-methyl-pentanoylamino]-propionic acid tert-butyl ester], which “Inhibition of Calcium Flux in IMR-32 Cells % Inhibition at 1 μM” value is on record?
Answer: The value was 30%.

Question: Which “Inhibition of Calcium Flux in IMR-32 Cells % Inhibition at 1 μM” value does the source give for CC(C)C[C@H](NC(=O)c1ccco1)C(=O)C[C@H](Cc1ccc(OCc2ccccc2)cc1)C(=O)OC(C)(C)C (relative stereo) [Example 90, [S-(R*,R*)]-2-(4-Benzyloxy-benzyl)-5-[(furan-2-carbonyl)-amino]-7-methyl-4-oxo-octanoic acid tert-butyl ester] here?
Answer: The value was 37%.

Question: For CCOc1ccc(C(=O)N[C@@H](CC(C)C)C(=O)N[C@@H](Cc2ccc(OCc3ccccc3)cc2)C(=O)OC(C)(C)C)cc1 (relative stereo) [Example 91, [S-(R*,R*)]-3-(4-Benzyloxy-phenyl)-2-[2-(4-ethoxy-benzoylamino)-4-methyl-pentanoylamino]-propionic acid tert-butyl ester], which “Inhibition of Calcium Flux in IMR-32 Cells % Inhibition at 1 μM” value is on record?
Answer: Its value is 34%.

Question: Which “Inhibition of Calcium Flux in IMR-32 Cells % Inhibition at 1 μM” value does the source give for CC(C)C[C@H](NC(=O)c1ccc(C(C)(C)C)cc1)C(=O)N[C@@H](Cc1ccc(OCc2ccccc2)cc1)C(=O)OC(C)(C)C (relative stereo) [Example 93, [S-(R*,R*)]-3-(4-Benzyloxy-phenyl)-2-[2-(4-tert-butyl-benzoylamino)-4-methyl-pentanoylamino]-propionic acid tert-butyl ester] here?
Answer: The value was 17%.

Same assay, conditions: 10 μM

Question: How did the “Inhibition of Calcium Flux in IMR-32 Cells % Inhibition at 10 μM” value turn out when CC(C)C[C@H](NC(=O)c1ccco1)C(=O)C[C@H](Cc1ccc(OCc2ccccc2)cc1)C(=O)OC(C)(C)C (relative stereo) [Example 90, [S-(R*,R*)]-2-(4-Benzyloxy-benzyl)-5-[(furan-2-carbonyl)-amino]-7-methyl-4-oxo-octanoic acid tert-butyl ester] was run?
Answer: Its value is 83%.

Question: For CCOc1ccc(C(=O)N[C@@H](CC(C)C)C(=O)N[C@@H](Cc2ccc(OCc3ccccc3)cc2)C(=O)OC(C)(C)C)cc1 (relative stereo) [Example 91, [S-(R*,R*)]-3-(4-Benzyloxy-phenyl)-2-[2-(4-ethoxy-benzoylamino)-4-methyl-pentanoylamino]-propionic acid tert-butyl ester], which “Inhibition of Calcium Flux in IMR-32 Cells % Inhibition at 10 μM” value is on record?
Answer: The value was 48%.
